Laboratory results reported in patent publication US10934310B2, “Inhibitors of Bruton's tyrosine kinase and method of their use” (JANSSEN PHARMACEUTICA NV, priority 2015, dated 2021).

Target: unphosphorylated-BTK kinase domain (UP-BTK), GST-tagged human BTK (389-659aa) (Homo sapiens (Human), UniProt Q06187)
Test: BTK Kinase Lanthascreen Binding Assay
Conditions: for BTK_I_binding pIC50: pIC50 = negative log of the IC50 in molar; for IC50: read-out: BTK_I_binding pIC50 (converted)
Protocol: BTK Kinase Lanthascreen Binding Assay:
A BTK kinase lanthascreen binding assay monitors compound binding to unphosphorylated-BTK kinase domain (UP-BTK), by competing with a fluorescent labeled tracer. […] Data were analyzed using Xlfit™ version 5.3 from ID Business Solutions (Guildford), Microsoft Excel add-in. pIC50 refers to the negative log of the IC50 in molar.

[1] = compound, 50 nM Tracer 236, 2 nM anti-GST antibody, 60 minutes
[2] = Lanthascreen binding, 60 minutes incubation

Chain of unphosphorylated-BTK kinase domain (UP-BTK), GST-tagged human BTK (389-659aa) (Q06187 389-659): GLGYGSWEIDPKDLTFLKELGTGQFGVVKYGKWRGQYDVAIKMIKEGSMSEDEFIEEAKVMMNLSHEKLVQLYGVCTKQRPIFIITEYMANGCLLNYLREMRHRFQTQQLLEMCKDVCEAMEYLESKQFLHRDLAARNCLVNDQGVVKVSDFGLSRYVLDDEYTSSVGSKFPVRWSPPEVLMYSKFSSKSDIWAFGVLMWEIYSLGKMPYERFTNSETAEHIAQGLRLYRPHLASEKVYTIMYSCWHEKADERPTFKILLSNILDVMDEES

Row | SMILES | BTK_I_binding pIC50 [1] | BTK_I_binding pIC50 [2] | also measured
1 | CC(=O)N[C@@H]1CCCC[C@@H]1NC(=O)c1sc2nccc3c2c1NC(=O)N3c1ccc(Oc2ccccc2)cc1C [Example 44, N-((1S,2R)-2-Acetamidocyclohexyl)-5-(2-methyl-4-phenoxyphenyl)-4-oxo-4,5-dihydro-3H-1-thia-3,5,8-triazaacenaphthylene-2-carboxamide] | 6.17 | – | –
2 | C=CC(=O)N[C@H]1CCC[C@H]1NC(=O)c1sc2nccc3c2c1NC(=O)N3c1cccc(-c2cccnc2)c1 [Example 202, N-((1R,2S)-2-Acrylamidocyclopentyl)-4-oxo-5-(3-(pyridin-3-yl)phenyl)-4,5-dihydro-3H-1-thia-3,5,8-triazaacenaphthylene-2-carboxamide] | 7.90 | – | –
3 | C=CC(=O)N[C@@H]1CCN(C(=O)c2sc3nccc4c3c2NC(=O)N4c2ccc(Oc3ccccc3)cc2C)C1 [Example 434, (R)—N-(1-(5-(2-Methyl-4-phenoxyphenyl)-4-oxo-4,5-dihydro-3H-1-thia-3,5,8-triazaacenaphthylene-2-carbonyl)pyrrolidin-3-yl)acrylamide] | – | 6.29 | –
4 | N[C@H]1CCC[C@H]1NC(=O)c1sc2nccc3c2c1NC(=O)N3c1ccc(OC2CCOCC2)cc1 [Example 288, N-((1R,2S)-2-Aminocyclopentyl)-4-oxo-5-(4-((tetrahydro-2H-pyran-4-yl)oxy)phenyl)-4,5-dihydro-3H-1-thia-3,5,8-triazaacenaphthylene-2-carboxamide] | – | – | IC50: > 1000 nM
5 | C=CC(=O)N[C@@H]1CCC[C@H]1NC(=O)c1sc2nccc3c2c1NC(=O)N3c1cccc(-c2ccccn2)c1 [Example 327, N-((1R,2R)-2-Acrylamidocyclopentyl)-4-oxo-5-(3-(pyridin-2-yl)phenyl)-4,5-dihydro-3H-1-thia-3,5,8-triazaacenaphthylene-2-carboxamide] | – | 6.98 | –
6 | CCC(=O)N[C@@H]1CC[C@H](NC(=O)c2sc3nccc4c3c2NC(=O)N4c2cnc(Oc3ccccc3)cc2C)C1 (single isomer, unassigned) [Example 390, 5-(*S)-(4-Methyl-6-phenoxypyridin-3-yl)-4-oxo-N-((1S,3R)-3-propionamidocyclopentyl)-4,5-dihydro-3H-1-thia-3,5,8-triazaacenaphthylene-2-carboxamide] | – | 8.04 | –
7 | C=CC(=O)N[C@H]1CCC[C@H]1NC(=O)c1sc2nccc3c2c1NC(=O)N3c1ccc(Oc2ccc(C)nc2)cc1C [Example 384, N-((1R,2S)-2-Acrylamidocyclopentyl)-5-(2-methyl-4-((6-methylpyridin-3-yl)oxy)phenyl)-4-oxo-4,5-dihydro-3H-1-thia-3,5,8-triazaacenaphthylene-2-carboxamide] | – | 7.54 | –
8 | C=CC(=O)N[C@H]1CCC[C@H]1NC(=O)c1sc2nccc3c2c1NC(=O)N3c1cnc(Oc2ccc(C)nc2)cc1C [Example 487, N-((1R,2S)-2-Acrylamidocyclopentyl)-5-(4-methyl-6-((6-methylpyridin-3-yl)oxy)pyridin-3-yl)-4-oxo-4,5-dihydro-3H-1-thia-3,5,8-triazaacenaphthylene-2-carboxamide] | – | 6.87 | –
9 | Cc1cc(OC2CCCC2)ncc1N1C(=O)Nc2c(C(=O)N[C@@H]3CC[C@H](N)C3)sc3nccc1c23 (single isomer, unassigned) [Example 394, N-((1R,3S)-3-Aminocyclopentyl)-5-(*S)-(6-(cyclopentyloxy)-4-methylpyridin-3-yl)-4-oxo-4,5-dihydro-3H-1-thia-3,5,8-triazaacenaphthylene-2-carboxamide] | – | 6.70 | –
10 | C=CC(=O)N[C@H]1CC[C@@H](NC(=O)c2sc3nccc4c3c2NC(=O)N4c2ccnc(-c3ccccc3)c2)C1 [Example 208, N-((1R,3S)-3-Acrylamidocyclopentyl)-4-oxo-5-(2-phenylpyridin-4-yl)-4,5-dihydro-3H-1-thia-3,5,8-triazaacenaphthylene-2-carboxamide] | – | – | IC50: > 1000 nM
11 | Cc1cc(Oc2ccccc2)ncc1N1C(=O)Nc2c(C(=O)N[C@@H]3CCC[C@H](N)C3)sc3nccc1c23 (single isomer, unassigned) [Example 356, N-((1R,3S)-3-Aminocyclohexyl)-5-(*S)-(4-methyl-6-phenoxypyridin-3-yl)-4-oxo-4,5-dihydro-3H-1-thia-3,5,8-triazaacenaphthylene-2-carboxamide] | – | – | IC50: > 1000 nM
12 | CC(=O)N[C@H]1CCCC[C@H]1NC(=O)c1sc2nccc3c2c1NC(=O)N3c1ccc(Oc2ccccc2)cc1C [Example 33, N-((1R,2S)-2-Acetamidocyclohexyl)-5-(2-methyl-4-phenoxyphenyl)-4-oxo-4,5-dihydro-3H-1-thia-3,5,8-triazaacenaphthylene-2-carboxamide] | 6.98 | – | –
13 | C=CC(=O)N[C@H]1CCCC[C@H]1NC(=O)c1sc2nccc3c2c1NC(=O)N3c1cnc(Oc2ccccc2)nc1 [Example 302, N-((1R,2S)-2-Acrylamidocyclohexyl)-4-oxo-5-(2-phenoxypyrimidin-5-yl)-4,5-dihydro-3H-1-thia-3,5,8-triazaacenaphthylene-2-carboxamide] | – | 8.23 | –
14 | N[C@@H]1CCC[C@H]1NC(=O)c1sc2nccc3c2c1NC(=O)N3c1ccc(Oc2ccccc2)cc1 [Example 91, N-((1R,2R)-2-Aminocyclopentyl)-4-oxo-5-(4-phenoxyphenyl)-4,5-dihydro-3H-1-thia-3,5,8-triazaacenaphthylene-2-carboxamide] | 7.31 | – | –
15 | C=CC(=O)N[C@@H]1CC[C@H](NC(=O)c2sc3nccc4c3c2NC(=O)N4c2cnc(Oc3ccccc3)nc2)C1 [Example 319, N-((1S,3R)-3-Acrylamidocyclopentyl)-4-oxo-5-(2-phenoxypyrimidin-5-yl)-4,5-dihydro-3H-1-thia-3,5,8-triazaacenaphthylene-2-carboxamide] | – | 7.21 | –
16 | C=CC(=O)N[C@H]1CC[C@@H](NC(=O)c2sc3nccc4c3c2NC(=O)N4c2ccc(Oc3ccccc3)cc2C)CC1 (single isomer, unassigned) [Example 1, N-((1S,4S)-4-Acrylamidocyclohexyl)-5-(*S)-(2-methyl-4-phenoxyphenyl)-4-oxo-4,5-dihydro-3H-1-thia-3,5,8-triazaacenaphthylene-2-carboxamide] | 7.61 | – | –
17 | C=CC(=O)N[C@@H]1CCC[C@H]1NC(=O)c1sc2nccc3c2c1NC(=O)N3c1cnc(Oc2ccccc2)cn1 [Example 311, N-((1R,2R)-2-Acrylamidocyclopentyl)-4-oxo-5-(5-phenoxypyrazin-2-yl)-4,5-dihydro-3H-1-thia-3,5,8-triazaacenaphthylene-2-carboxamide] | – | 7.57 | –
18 | Cc1cc(Oc2ccccc2)ccc1N1C(=O)Nc2c(C(=O)N[C@@H]3CCCC[C@@H]3NC(=O)CN)sc3nccc1c23 (single isomer, unassigned) [Example 129, N-((1R,2S)-2-(2-Aminoacetamido)cyclohexyl)-5-(*S)-(2-methyl-4-phenoxyphenyl)-4-oxo-4,5-dihydro-3H-1-thia-3,5,8-triazaacenaphthylene-2-carboxamide] | 7.39 | – | –
19 | CCC(=O)N[C@H]1CCC[C@H](NC(=O)c2sc3nccc4c3c2NC(=O)N4c2cnc(Oc3ccccc3)cc2C)C1 (single isomer, unassigned) [Example 402, 5-(*S)-(4-Methyl-6-phenoxypyridin-3-yl)-4-oxo-N-((1S,3S)-3-propionamidocyclohexyl)-4,5-dihydro-3H-1-thia-3,5,8-triazaacenaphthylene-2-carboxamide] | – | 6.38 | –
20 | CCC(=O)N[C@@H]1CCC[C@H]1NC(=O)c1sc2nccc3c2c1NC(=O)N3c1ccc(Oc2ccccc2)nc1C (single isomer, unassigned) [Example 353, 5-(*S)-(2-Methyl-6-phenoxypyridin-3-yl)-4-oxo-N-((1R,2R)-2-propionamidocyclopentyl)-4,5-dihydro-3H-1-thia-3,5,8-triazaacenaphthylene-2-carboxamide] | – | – | IC50: > 1000 nM
21 | C=CC(=O)N[C@H]1CCC[C@H]1NC(=O)c1sc2nccc3c2c1NC(=O)N3c1ncc(Oc2ccccc2)cn1 [Example 296, N-((1R,2S)-2-acrylamidocyclopentyl)-4-oxo-5-(5-phenoxypyrimidin-2-yl)-4,5-dihydro-3H-1-thia-3,5,8-triazaacenaphthylene-2-carboxamide] | – | 8.39 | –
22 | Cc1cc(Oc2ccccc2)ccc1N1C(=O)Nc2c(C(=O)N[C@H]3CCCC[C@H]3N(C)C)sc3nccc1c23 [Example 48, N-((1S,2R)-2-(Dimethylamino)cyclohexyl)-5-(2-methyl-4-phenoxyphenyl)-4-oxo-4,5-dihydro-3H-1-thia-3,5,8-triazaacenaphthylene-2-carboxamide] | 6.12 | – | –
23 | CCC(=O)N[C@H]1CC[C@@H](NC(=O)c2sc3nccc4c3c2NC(=O)N4c2ccc(Oc3ccccc3)cc2C)CC1 (single isomer, unassigned) [Example 92, 5-(*S)-(2-Methyl-4-phenoxyphenyl)-4-oxo-N-((1S,4S)-4-propionamidocyclohexyl)-4,5-dihydro-3H-1-thia-3,5,8-triazaacenaphthylene-2-carboxamide] | 6.91 | – | –
24 | O=C(N[C@@H]1CCC[C@H]1O)c1sc2nccc3c2c1NC(=O)N3c1ccc(Oc2ccccc2)cc1 [Example 393, N-((1R,2R)-2-Hydroxycyclopentyl)-4-oxo-5-(4-phenoxyphenyl)-4,5-dihydro-3H-1-thia-3,5,8-triazaacenaphthylene-2-carboxamide] | – | 6.74 | –
25 | Cc1cc(Oc2ccccc2)ccc1N1C(=O)Nc2c(C(=O)N3CC[C@H](N)C3)sc3nccc1c23 [Example 420, (S)-2-(3-Aminopyrrolidine-1-carbonyl)-5-(2-methyl-4-phenoxyphenyl)-3H-1-thia-3,5,8-triazaacenaphthylen-4(5H)-one] | – | 5.73 | –
